Among the data in patent US8541585B2, “N-acyl cyclic amine derivative or pharmaceutically acceptable salt thereof” (Dainippon Sumitomo Pharma Co., Ltd., priority 2010, dated 2013) are inhibition values, retold here.

For one test, the target named is human D2L receptor (Homo sapiens, UniProt P14416). The test can be described thus: Dopamine D2L receptor binding assay ([3H]-spiperone). Particulars: 10 nM test drug; [3H]-spiperone 0.5 nM; human D2L receptor-expressing CHO cell membrane; read-out: BINDING INHIBITION RATE (%) D2L 10 nM. As to the method: (1) Dopamine D2L Receptor Binding Assay
Chain of human D2L receptor (P14416 whole entry): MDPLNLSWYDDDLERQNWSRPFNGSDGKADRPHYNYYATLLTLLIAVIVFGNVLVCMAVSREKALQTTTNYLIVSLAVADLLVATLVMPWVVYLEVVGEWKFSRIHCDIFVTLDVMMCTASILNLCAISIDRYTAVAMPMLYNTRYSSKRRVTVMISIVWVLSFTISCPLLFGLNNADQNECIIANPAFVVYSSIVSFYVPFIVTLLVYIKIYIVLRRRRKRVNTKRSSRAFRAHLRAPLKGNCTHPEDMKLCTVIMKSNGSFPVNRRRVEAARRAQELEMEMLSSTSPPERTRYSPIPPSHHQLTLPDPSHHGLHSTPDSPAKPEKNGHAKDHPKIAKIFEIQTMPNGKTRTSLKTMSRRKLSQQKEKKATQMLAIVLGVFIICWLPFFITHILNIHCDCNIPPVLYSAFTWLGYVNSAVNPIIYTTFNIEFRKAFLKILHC
D2L receptor binding assay was performed in reference to a method described by Hirose et al. (Japan. J. Pharmacol., 53, 321-329, 1990). After a reaction in a total volume of 200 μL of 50 mM Tris-HCl (pH=7.6) buffer solution containing 50 μL of [^3H]-spiperone (final concentration 0.5 nM), 1 μL of test drug in DMSO, and 149 μL of human D2L receptor-expressing CHO cell membrane sample, human D2L receptor binding activity of [^3H]-spiperone was measured. The reaction solution let stand for 60 minutes at room temperature, and then it was quickly added on a glass fiber filter plate (Multiscreen FB, Millipore inc.) coated with 0.3% polyethyleneimine (PEI) and filtered under reduced pressure. The glass fiber filter was washed with 200 μL of ice-cooled 50 mM Tris-HCl (pH=7.6) twice, repeatedly filtered under reduced pressure, and then transferred to a vial containing 4 mL of Ecoscint A (National Diagnostics inc.). The residual radioactivity on the glass fiber filter was measured by a liquid scintillation counter. Nonspecific binding was measured in the presence of 10 μM of spiperone, and [^3H]-spiperone binding inhibition rate in the presence of 10 nM of test drug was determined. The larger binding inhibition rate (%) means that test drug has the higher binding affinity for human D2L receptor.

Another test concerns the target T1, human 5-HT2A receptor (Homo sapiens, UniProt P28223).
T1 construct: expressed in transfected cells; host or cells: CHO cells (membrane preparation)
The test can be described thus: Serotonin 5-HT2A receptor binding assay ([3H]-ketanserin). Particulars: [3H]-ketanserin 1 nM, human 5-HT2A receptor-expressing CHO cell membrane; for inhibition at 0.001 µM: 1 nM test drug, read-out: BINDING INHIBITION RATE (%) 5HT2A 1 nM; for inhibition at 0.01 µM: 10 nM test drug, read-out: BINDING INHIBITION RATE (%) 5HT2A 10 nM. The procedure:
(2) Serotonin 5-HT2A Receptor Binding Assay
5-HT2A receptor binding assay was performed in reference to a method described by Hirose et al. (Japan. J. Pharmacol., 53, 321-329, 1990). After a reaction in a total volume of 200 μL of 50 mM Tris-HCl (pH=7.6) buffer solution containing 50 μL of [^3H]-ketanserin (final concentration 1 nM), 1 μL of test drug in DMSO, and 149 μL of human 5-HT2A receptor-expressing CHO cell membrane sample, human 5-HT2A receptor binding activity of [^3H]-ketanserin was measured. The reaction solution let stand for 15 minutes at 37° C., and then it was quickly added on a glass fiber filter plate (Multiscreen FB, Millipore inc.) coated with 0.05% Brij 35 and filtered under reduced pressure. The glass fiber filter was washed with 200 μL of ice-cooled 50 mM Tris-HCl (pH=7.6) twice, repeatedly filtered under reduced pressure, and then transferred to a vial containing 4 mL of Ecoscint A (National Diagnostics inc.). The residual radioactivity on the glass fiber filter was measured by a liquid scintillation counter. Nonspecific binding was measured in the presence of 10 μM of MDL-100907, and [^3H]-ketanserin binding inhibition rate in the presence of 1 nM or 10 nM of test drug was determined.

The target in another test is T2, human α1D receptor (Homo sapiens, UniProt P25100).
T2 construct: expressed in transfected cells; host or cells: CHO cells (membrane preparation)
T2 sequence (P25100 1-572): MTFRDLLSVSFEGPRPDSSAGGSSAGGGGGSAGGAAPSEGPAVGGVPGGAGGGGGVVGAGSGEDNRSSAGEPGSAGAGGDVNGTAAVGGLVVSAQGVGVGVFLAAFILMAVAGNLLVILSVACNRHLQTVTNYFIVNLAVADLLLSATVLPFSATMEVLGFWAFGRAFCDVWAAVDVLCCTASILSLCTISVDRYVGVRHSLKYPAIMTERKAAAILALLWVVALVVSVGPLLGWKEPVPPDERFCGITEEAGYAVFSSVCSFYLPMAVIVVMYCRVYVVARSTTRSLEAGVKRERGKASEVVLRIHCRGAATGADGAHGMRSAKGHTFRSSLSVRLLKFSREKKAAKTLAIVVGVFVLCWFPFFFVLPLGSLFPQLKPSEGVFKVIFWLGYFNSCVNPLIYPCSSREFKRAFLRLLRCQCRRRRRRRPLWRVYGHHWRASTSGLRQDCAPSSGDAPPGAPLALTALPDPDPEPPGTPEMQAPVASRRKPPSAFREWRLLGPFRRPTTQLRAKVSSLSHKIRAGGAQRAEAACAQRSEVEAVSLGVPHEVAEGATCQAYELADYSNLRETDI
The test can be described thus: Adrenaline α1D receptor binding assay ([3H]-prazosin). Particulars: 100 nM test drug; [3H]-prazosin 0.6 nM; human α1D receptor-expressing CHO cell membrane; read-out: BINDING INHIBITION RATE (%) α1D 100 nM. The procedure: (4) Adrenaline α1D Receptor Binding Assay
After a reaction in a total volume of 200 μL of 50 mM Tris-HCl (pH=7.6) buffer solution containing 50 μL of [^3H]-prazosin (final concentration 0.6 nM), 1 μL of test drug in DMSO, and 149 μL of human α1D receptor-expressing CHO cell membrane sample, human α1D receptor binding activity of [^3H]-prazosin was measured. The reaction solution let stand for 30 minutes at room temperature, and then it was quickly added on a glass fiber filter plate (Multiscreen FB, Millipore inc.) coated with 0.3% polyethyleneimine (PEI) and filtered under reduced pressure. The glass fiber filter was washed with 200 μL of ice-cooled 50 mM Tris-HCl (pH=7.6) twice, repeatedly filtered under reduced pressure, and then transferred to a vial containing 4 mL of Ecoscint A (National Diagnostics inc.). The residual radioactivity on the glass fiber filter was measured by a liquid scintillation counter. Nonspecific binding was measured in the presence of 1 μM of prazosin, and [^3H]-prazosin binding inhibition rate in the presence of 100 nM of test drug was determined.

The target of a further test is T3, human 5-HT6 receptor (Homo sapiens, UniProt P50406).
T3 construct: expressed in transfected cells; host or cells: CHO cells (membrane preparation)
T3 sequence (P50406 whole entry): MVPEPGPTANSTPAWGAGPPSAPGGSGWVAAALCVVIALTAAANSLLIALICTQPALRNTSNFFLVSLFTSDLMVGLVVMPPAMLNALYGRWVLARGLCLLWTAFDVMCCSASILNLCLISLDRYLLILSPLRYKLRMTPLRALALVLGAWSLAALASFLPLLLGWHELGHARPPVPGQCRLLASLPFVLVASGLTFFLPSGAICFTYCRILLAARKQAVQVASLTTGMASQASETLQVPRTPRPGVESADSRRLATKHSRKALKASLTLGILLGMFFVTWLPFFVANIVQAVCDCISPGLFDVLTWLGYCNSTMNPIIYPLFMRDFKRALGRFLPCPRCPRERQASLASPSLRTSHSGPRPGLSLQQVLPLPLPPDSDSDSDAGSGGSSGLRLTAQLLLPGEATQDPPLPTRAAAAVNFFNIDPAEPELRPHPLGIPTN
The test can be described thus: Serotonin 5-HT6 receptor binding assay ([3H]-clozapine). Particulars: 100 nM test drug; [3H]-clozapine 2 nM; human 5-HT6 receptor-expressing CHO cell membrane; read-out: BINDING INHIBITION RATE (%) 5HT6 100 nM. As to the method:
(3) Serotonin 5-HT6 Receptor Binding Assay
After a reaction in a total volume of 200 μL of 50 mM Tris-HCl (pH=7.6), 4 mM CaCl2, and 0.5 mM EDTA buffer solution containing 50 μL of [^3H]-clozapine (final concentration 2 nM), 1 μL of test drug in DMSO, and 149 μL of human 5-HT6 receptor-expressing CHO cell membrane sample, human 5-HT6 receptor binding activity of [^3H]-clozapine was measured. The reaction solution let stand for 40 minutes at room temperature, and then it was quickly added on a glass fiber filter plate (Multiscreen FB, Millipore inc.) coated with 0.3% polyethyleneimine (PEI) and filtered under reduced pressure. The glass fiber filter was washed with 200 μL of ice-cooled 50 mM Tris-HCl (pH=7.6) twice, repeatedly filtered under reduced pressure, and then transferred to a vial containing 4 mL of Ecoscint A (National Diagnostics inc.). The residual radioactivity on the glass fiber filter was measured by a liquid scintillation counter. Nonspecific binding was measured in the presence of 10 μM of SB-258585, and [^3H]-clozapine binding inhibition rate in the presence of 100 nM of test drug was determined.

T1 sequence (P28223 whole entry): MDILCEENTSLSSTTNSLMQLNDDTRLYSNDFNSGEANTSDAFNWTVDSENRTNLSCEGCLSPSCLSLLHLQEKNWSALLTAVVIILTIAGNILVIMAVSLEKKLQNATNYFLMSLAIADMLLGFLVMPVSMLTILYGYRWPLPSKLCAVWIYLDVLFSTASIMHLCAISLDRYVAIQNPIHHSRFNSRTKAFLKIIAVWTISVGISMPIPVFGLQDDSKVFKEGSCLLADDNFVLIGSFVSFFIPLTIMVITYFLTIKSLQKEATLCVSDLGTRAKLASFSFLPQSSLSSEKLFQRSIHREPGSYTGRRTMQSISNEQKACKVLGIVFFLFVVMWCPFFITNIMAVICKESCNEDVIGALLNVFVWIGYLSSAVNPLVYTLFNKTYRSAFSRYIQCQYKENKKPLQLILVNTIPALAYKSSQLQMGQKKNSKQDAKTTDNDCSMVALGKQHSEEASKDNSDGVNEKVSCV

Regarding `Cc1ccc2cc(C(=O)N3CCC[C@H]3CCN3CCN(c4noc5cc(F)ccc45)CC3)[nH]c2c1` [Example 21], at human D2L receptor, the inhibition – broadly, the relative decrease from the control value, in per cent – at 0.01 µM is 73%. In addition, the inhibition at 0.001 µM at human 5-HT2A receptor worked out at 41%. Besides, the inhibition at 0.1 µM at human α1D receptor is 55%; at human 5-HT6 receptor, 94%.
Regarding `COc1ccc2cc(C(=O)N3C[C@H](O)C[C@H]3CCN3CCC(c4c[nH]c5ccccc45)CC3)[nH]c2c1` [Example 35], the inhibition at 0.01 µM at human D2L receptor is 37%; on human 5-HT2A receptor it was 89%. Besides, the inhibition at 0.1 µM at human α1D receptor worked out at 81%; on human 5-HT6 receptor, 79%.
Take `O=C(c1ccc(F)cc1)C1CCN(C[C@H]2CCCN(C(=O)c3cc4ccc(Cl)cc4[nH]3)C2)CC1` [Example 45]: the inhibition at 0.01 µM on human D2L receptor came out at 82%. For the same molecule, the inhibition at 0.001 µM on human 5-HT2A receptor was 84%. Moreover, the inhibition at 0.1 µM came to 46% on human α1D receptor and 97% at human 5-HT6 receptor.
Regarding `Cc1ccc2cc(C(=O)N3CCC[C@H]3CCN3CCC(n4ccc5ccc(F)cc54)CC3)[nH]c2c1` [Example 10], the inhibition at 0.01 µM on human D2L receptor is 52%. Also, at human 5-HT2A receptor, the inhibition at 0.001 µM was 37%. Moreover, the inhibition at 0.1 µM on human α1D receptor was 12%; on human 5-HT6 receptor it was 74%.
For the molecule `O=C(c1ccc(F)cc1)C1CCN(CC[C@@H]2CCCN2C(=O)c2[nH]c3ccccc3c2F)CC1` [Example 165, (S)-(3-Fluoro-1H-indol-2-yl)(2-(2-(4-(4-fluorobenzoyl)piperidin-1-yl)ethyl)pyrrolidin-1-yl)methanone], the inhibition at 0.01 µM on human D2L receptor is 90%. In addition, on human 5-HT2A receptor, the inhibition at 0.001 µM turned out to be 74%. In addition, the inhibition at 0.1 µM was 53% at human α1D receptor and 90% on human 5-HT6 receptor.
`O=C(/C=C/c1ccc2c(c1)OCO2)N1CCC[C@@H](CN2CCC(c3noc4cc(F)ccc34)CC2)C1` [Example 16]: the inhibition at 0.01 µM at human D2L receptor was found to be 97%; on human 5-HT2A receptor, 93%. Besides, the inhibition at 0.1 µM at human α1D receptor was found to be 91%; at human 5-HT6 receptor, 87%.
Take `Cc1ccc2cc(C(=O)N3CCC[C@H]3CCN3CCN(c4n[nH]c5ccccc45)CC3)[nH]c2c1` [Example 2, (S)-(2-(2-(4-(1H-Indazol-3-yl)piperazin-1-yl)ethyl)pyrrolidin-1-yl)(6-methyl-1H-indol-2-yl)methanone]: at human D2L receptor, the inhibition at 0.01 µM was 73%. Moreover, the inhibition at 0.001 µM at human 5-HT2A receptor stood at 65%. For the same molecule, the figures for the inhibition at 0.1 µM at human α1D receptor and at human 5-HT6 receptor were 63% and 95%, respectively.
Take `COc1ccc2cc(C(=O)N3CC[C@H]3CCN3CCC(c4c[nH]c5ccccc45)CC3)[nH]c2c1` [Example 32]: the inhibition at 0.01 µM on human D2L receptor worked out at 36%; at human 5-HT2A receptor it was 95%. In addition, the inhibition at 0.1 µM at human α1D receptor turned out to be 68%; at human 5-HT6 receptor, 97%.
In the same order, the values of `O=C(/C=C/c1ccc2c(c1)OCO2)N1CCC[C@H](CN2CCC(c3noc4cc(F)ccc34)CC2)C1` [Example 17] are 84%, 99%, 92% and 93%.
Turning to `Cc1ccc2cc(C(=O)N3CCC[C@H]3CCN3CCC(N4CCCc5ccccc54)CC3)[nH]c2c1` [Example 12], the inhibition at 0.01 µM on human D2L receptor came to 59%. For the same molecule, at human 5-HT2A receptor, the inhibition at 0.001 µM stood at 28%. Besides, the inhibition at 0.1 µM on human α1D receptor turned out to be 43%; at human 5-HT6 receptor, 84%.
In the same order, the values of `Cc1ccc2nc(C(=O)N3CCC[C@H]3CCN3CCC(C(=O)c4ccc(F)cc4)CC3)[nH]c2c1` [Example 59] are 91%, 58%, 95% and 87%.
For the molecule `COc1ccc2[nH]c(C(=O)N3CCCC[C@H]3CCN3CCC(c4coc5ccccc45)CC3)cc2c1` [Example 26], the inhibition at 0.01 µM at human D2L receptor turned out to be 77%; on human 5-HT2A receptor, 98%. Moreover, at human 5-HT2A receptor, the inhibition at 0.001 µM amounted to 77%. The inhibition at 0.1 µM on human α1D receptor was 67%; on human 5-HT6 receptor, 65%.
For `COc1ccc2cc(C(=O)N3CCCC[C@H]3CCN3CCC(c4c[nH]c5ccccc45)CC3)[nH]c2c1` [Example 31], the inhibition at 0.01 µM was 78% at human D2L receptor and 96% at human 5-HT2A receptor. In addition, the results for the inhibition at 0.1 µM on human α1D receptor and on human 5-HT6 receptor were 54% and 88%, respectively.
With `O=C(c1cc2cc(F)ccc2[nH]1)N1CCOC[C@H]1CCN1CCC(c2c[nH]c3ccccc23)CC1` [Example 7, (R)-(3-(2-(4-(1H-Indol-3-yl)piperidin-1-yl)ethyl)morpholino)(5-fluoro-1H-indol-2-yl)methanone], the inhibition at 0.01 µM is 85% on human D2L receptor and 100% at human 5-HT2A receptor. Besides, the inhibition at 0.1 µM was found to be 86% on human α1D receptor and 97% at human 5-HT6 receptor.
For `Cc1cccc2cc(C(=O)N3CCC[C@H]3CCN3CCC(C(=O)c4ccc(F)cc4)CC3)[nH]c12` [Example 61], the inhibition at 0.01 µM at human D2L receptor came to 69%. For the same molecule, the inhibition at 0.001 µM at human 5-HT2A receptor came out at 46%. Further, the inhibition at 0.1 µM is 29% at human α1D receptor and 82% on human 5-HT6 receptor.
Consider `COc1ccc2[nH]c(C(=O)N3CCCC[C@H]3CCN3CCC(c4coc5cc(F)ccc45)CC3)cc2c1` [Example 30], for which the results for the inhibition at 0.01 µM on human D2L receptor and at human 5-HT2A receptor were 92% and 95%, respectively. Also, the inhibition at 0.1 µM at human 5-HT6 receptor stood at 65%.
